In patent US20210115509A1, “BIOMARKER FOR IDENTIFYING SPECIFIC EXPOSURE TO KETONES AND METHOD OF IDENTIFICATION USING THE SAME” (KOREA INSTITUTE OF SCIENCE AND TECHNOLOGY, priority 2019, published 2021):

How the values were obtained:
[1] = system: BEAS-2B human bronchial epithelial cell line; assay: MTT assay, cytotoxicity of ketone compounds in BEAS-2B cell line; type: cell-based; conditions: BEAS-2B, 48 hours, MTT
Procedure: BEAS-2B (Korean Cell Line Bank), a human bronchial epithelial cell line, was cultured using RPMI 1640 medium (Gibco, USA) supplemented with 10% FBS until the cells grew to about a confluence of 70 to 80% in a 100 mm dish.
Among ketones belonging to mVOCs (microbial volatile organic compounds) exposed to the environment, acetone, 2-butanone, 2-pentanone, 2-hexanone and 2-heptanone were selected, and the chemicals were dissolved in filtered distilled water (DW). A vehicle concentration was set to 0.1% or less in all experiments.
MTT assay using a BEAS-2B cell line was performed in accordance with the method of Mossman et al. (J. Immunol. Methods, 65, 55-63, 1983).
Specifically, the cells were seeded at a density of 3.5×10^4 cells/well in a 24-well plate and treated with the five ketone compounds dissolved in filtered distilled water, prepared in Example 1-2. After 48 hours, the result was mixed with 5 mg/ml of MTT (3-4,5-dimethylthiazol-2,5-diphenyltetrazolium bromide), added to a tube and incubated at 37° C. for 3 hours. Then, the medium was removed, the formed formazan crystal was dissolved in 500 μl of DMSO, and then 100 μl of the solution was transferred to a 96-well plate to measure an OD (optical density) value at 540 nm.

[2] = system: BEAS-2B human bronchial epithelial cell line; assay: Gene expression change by high-throughput RNA sequencing (NextSeq 500) in ketone-exposed BEAS-2B cells; type: cell-based
Procedure: RNA was extracted from cell samples of ketone-exposed and non-ketone-exposed groups using a TRIzol reagent (Life Technologies, USA) in accordance with the manufacturer's directions to isolate total RNA and the total RNA was purified using a RNeasy mini kit (Qiagen, USA). The concentration of each total RNA sample was determined by a ND-2000 spectrophotometer (Thermo Inc., DE, USA) as a spectrophotometer and Agilent 2100 Bioanalyzer (Agilent Technologies, USA).
The establishment of libraries from the total RNA obtained in Example 2-1 in the experimental group and the normal control group exposed to the ketones was carried out using a QuantSeq 3′ mRNA-Seq Library Prep Kit (Lexogen, Inc., Austria) in accordance with the manufacturer's directions. 500 ng of the total RNA was hybridized with an oligo-dT primer including an Illumina-compatible sequence at the 5′ end of RNA, followed by reverse transcription. After degradation of the RNA template, a second strand was synthesized using a random primer including an Illumina-compatible linker sequence at the 5′ end thereof. Double-stranded libraries were purified using magnetic beads to remove all reaction components. The library was amplified in order to add the entire adapter sequence required for cluster production, and the completed cDNA library was purified from the PCR components.
Sequencing was performed by high-throughput sequencing as single-end 75 sequencing using a NextSeq 500 (IIlumina, Inc., USA). Read count (RC) data was processed based on the quantile normalization method using EdgeR in R (R development Core Team, 2016) using Bioconductor (Gentleman et al., 2004). Gene classification was based on searches performed on DAVID (http://david.abcc.ncifcrf.gov/) and the Medline database (http://www.ncbi.nlm.nih.gov/).
The extracted data were analyzed through normalization using Agilent GeneSpring GX 12.6.1 (Agilent technologies, CA, USA) to analyze the expression pattern of each gene.

[3] = IC5 conc.: Acetone 5.38, 2-Butanone 22.27, 2-Pentanone 5.24, 2-Hexanone 14.82, 2-Heptanone 5.05 mM
[4] = IC20 conc.: Acetone 71.90, 2-Butanone 106.21, 2-Pentanone 39.38, 2-Hexanone 52.51, 2-Heptanone 20.22 mM

CCC(C)=O [2-Butanone, 2-butanone]
concentration (105) providing a survival rate (viability) of 95% [1]: 22.27 mM | concentration (1020) providing a survival rate (viability) of 80% [1]: 106.21 mM | Fold change ADRA2A (NM_000681) [2, 3]: 0.185 | Fold change ATRNL1 (NR_074088) [2, 3]: 3.234 | Fold change C12orf79 (NR_046159) [2, 3]: 0.216 | Fold change C14orf80 (NR_046159) [2, 3]: 0.356 | Fold change CALML3 (NM_001286399) [2, 3]: 0.356 | Fold change CCDC184 (NM_001013635) [2, 3]: 2.379 | Fold change CD37 (NM_001040031) [2, 3]: 3.286 | Fold change CDHR1 (NM_001171971) [2, 3]: 0.470 | Fold change CHL1 (NM_001253387) [2, 3]: 0.274 | Fold change COL4A3 (NM_000091) [2, 3]: 2.264 | Fold change CRLF2 (NM_022148) [2, 3]: 0.359 | Fold change CSF3R (NM_172313) [2, 3]: 0.356 | Fold change DNMBP-AS1 (NR_024130) [2, 3]: 11.453 | Fold change EGR1 (NM_001964) [2, 3]: 0.422 | Fold change GNA14 (NM_004297) [2, 3]: 3.512 | Fold change LOC728752 (NR_036504) [2, 3]: 3.506 | Fold change PAX8 (NM_003466) [2, 3]: 6.636 | Fold change PRRT3-AS1 (NR_046734) [2, 3]: 2.207 | Fold change RBP3 (NM_002900) [2, 3]: 0.356 | Fold change SEPT14 (NM_207366) [2, 3]: 0.458 | Fold change SERPINA12 (NM_001304461) [2, 3]: 0.356 | Fold change SLC13A4 (NM_012450) [2, 3]: 7.697 | Fold change SPOCK2 (NM_001244950) [2, 3]: 3.020 | Fold change TSPAN1 (NM_005727) [2, 3]: 2.540 | Fold change USP12-AB1 (NR_046647) [2, 3]: 3.499 | Fold change VIPR†-AS1 (NR_046654) [2, 3]: 0.356 | Fold change XIRP1 (NM_001198621) [2, 3]: 0.356 | Fold change ZFP69B (NM_023070) [2, 3]: 4.676 | Fold change ZNF432 (NM_014650) [2, 3]: 2.326 | Fold change ZNF487 (NR_026693) [2, 3]: 0.356 | Fold change ADRA2A (NM_000681) [2, 4]: 0.184 | Fold change ATRNL1 (NR_074088) [2, 4]: 2.330 | Fold change C12orf79 (NR_046159) [2, 4]: 0.216 | Fold change C14orf80 (NR_046159) [2, 4]: 0.356 | Fold change CALML3 (NM_001286399) [2, 4]: 0.356 | Fold change CCDC184 (NM_001013635) [2, 4]: 6.647 | Fold change CD37 (NM_001040031) [2, 4]: 2.647 | Fold change CDHR1 (NM_001171971) [2, 4]: 0.222 | Fold change CHL1 (NM_001253387) [2, 4]: 0.268 | Fold change COL4A3 (NM_000091) [2, 4]: 3.577 | Fold change CRLF2 (NM_022148) [2, 4]: 0.359 | Fold change CSF3R (NM_172313) [2, 4]: 0.356 | Fold change DNMBP-AS1 (NR_024130) [2, 4]: 12.732 | Fold change EGR1 (NM_001964) [2, 4]: 0.404 | Fold change GNA14 (NM_004297) [2, 4]: 5.582 | Fold change LOC728752 (NR_036504) [2, 4]: 6.647 | Fold change PAX8 (NM_003466) [2, 4]: 2.233 | Fold change PRRT3-AS1 (NR_046734) [2, 4]: 2.147 | Fold change RBP3 (NM_002900) [2, 4]: 0.356 | Fold change SEPT14 (NM_207366) [2, 4]: 0.217 | Fold change SERPINA12 (NM_001304461) [2, 4]: 0.356 | Fold change SLC13A4 (NM_012450) [2, 4]: 8.571 | Fold change SPOCK2 (NM_001244950) [2, 4]: 8.426 | Fold change TSPAN1 (NM_005727) [2, 4]: 2.466 | Fold change USP12-AB1 (NR_046647) [2, 4]: 5.570 | Fold change VIPR†-AS1 (NR_046654) [2, 4]: 0.356 | Fold change XIRP1 (NM_001198621) [2, 4]: 0.356 | Fold change ZFP69B (NM_023070) [2, 4]: 2.942 | Fold change ZNF432 (NM_014650) [2, 4]: 6.342 | Fold change ZNF487 (NR_026693) [2, 4]: 0.356
